The text below walks through data of patent US10125101B2, “Indanylaminopyridylcyclopropanecarboxylic acids, pharmaceutical compositions and uses thereof” (Boehringer Ingelheim International GmbH, priority 2016, dated 2018).

One series in a line: Aqueous solubility. It is filed as physicochemical. The note with it: buffer pH 2.2, 24 h shaking, 2.5% DMSO; for solubility at 24 h: aqueous buffer, kinetic from dmso stock. As for the experimental part:
Starting from a 10 mM DMSO stock solution aliquots are diluted with acetonitrile/water (1/1) or buffer, respectively. After 24 h of shaking, the solutions are filtrated and analyzed by LC-UV. The amount dissolved in buffer is compared to the amount in the acetonitrile solution.

For series [1], the target named is cytochrome P450 2C8-isoenzyme (Homo sapiens (Human), UniProt P10632). The series can be described thus: Inhibition of CYP-2C8 (amodiaquine deethylation, human liver microsomes). In kind it is in vitro ADME. The note with it: amodiaquine 1 μM, 37° C. As for the experimental part: (§1) All assays are carried out on a robotic system in 96 well plates. The final incubation volume contains TRIS buffer (0.1 M), MgCl2 (5 mM), human liver microsomes (0.05 mg/mL), amodiaquine (1 μM) and the test compound at five different concentrations or no compound (high control) in duplicate (e.g. highest concentration 10-50 μM with subsequent serial 1:4 dilutions). Following a short preincubation period, reactions are started with the cofactor (NADPH, 1 mM) and stopped by cooling the incubation down to 8° C. and subsequently by addition of one volume of acetonitrile. An internal standard solution—the stable isotope d5-desethylamodiaquine—is added after quenching of incubations. Peak area analyte (=metabolite formed) and internal standard is determined by LC-MS/MS. The resulting peak area ratio analyte to internal standard in these incubations is compared to a control activity containing no test compound. Within each of the assay runs, the IC50 of a positive control inhibitor (Montelukast) is determined.

The next series concerns the target human GPR40 receptor (Homo sapiens (Human), UniProt O14842). Put plainly: IP1 accumulation measurements using the IPOne assay system. It is filed as cell-based. As for the experimental part: IP1 accumulation measurements using the IPOne assay system—1321N1 cells stably expressing human GPR40 receptor (Euroscreen, Belgium) are seeded 24 h before the assay in white 384-well plates in culture medium containing 10% FCS, 1% Na-Pyruvate and 400 μg/mL G418. IP1 is assayed according to the manufacturer's description (Cisbio Bioassays, France). In brief, the assay is started by substitution of the culture medium by stimulation buffer (Hepes 10 mM, CaCl2 1 mM, MgCl2 0.5 mM, KCl 4.2 mM, NaCl 146 mM, glucose 5.5 mM and LiCl 50 mM, pH 7.4). Cells are stimulated for 1 h at 37° C., 5% CO2 by addition of the compounds that are diluted in stimulation buffer containing LiCl. Assays are stopped by adding HTRF-conjugates (IP1-d2 and Anti-IP1 cryptate Tb) and lysis buffer, provided by the manufacturer. After an incubation time of 1 h at room temperature plates are measured using an EnVision™, Perkin Elmer. The obtained fluorescence ratios at 665/615 […] are then used to calculate the pEC50 values using Assay Explorer 3.3 Software (Accelrys, Inc.) by interpolation using an IP1 reference curve and subsequent sigmoidal curve fitting allowing for a variable hill slope.

Series [2] deals with cytochrome P450 2C9-isoenzyme (Homo sapiens (Human), UniProt P11712). Put plainly: Inhibition of CYP-2C9 (diclofenac hydroxylation, human liver microsomes). In kind it is in vitro ADME. The note with it: diclofenac 10 μM, 37° C. The protocol:
as §1, with “(0.1” for “(0.05”, “diclofenac (10” for “amodiaquine (1”, “(e.g.,” for “(e.g.”, “^13C6-hydroxydiclofenac—is” for “d5-desethylamodiaquine—is”, “(sulfaphenazole)” for “(Montelukast)”

Setting [3] is: 1321N1 cells stably expressing human GPR40, 1 h stimulation, read-out: EC50.
[4] abbreviates: head-to-head compilation, given as IC50, values equal the EC50 of Table 2, read-out: GPR40: IC50.

Converted amounts (≈) assume the structure as drawn. Read-outs that look alike come from different tables or passages of the source. Some results are limits rather than exact numbers.

Sequence of cytochrome P450 2C8-isoenzyme (P10632 whole entry): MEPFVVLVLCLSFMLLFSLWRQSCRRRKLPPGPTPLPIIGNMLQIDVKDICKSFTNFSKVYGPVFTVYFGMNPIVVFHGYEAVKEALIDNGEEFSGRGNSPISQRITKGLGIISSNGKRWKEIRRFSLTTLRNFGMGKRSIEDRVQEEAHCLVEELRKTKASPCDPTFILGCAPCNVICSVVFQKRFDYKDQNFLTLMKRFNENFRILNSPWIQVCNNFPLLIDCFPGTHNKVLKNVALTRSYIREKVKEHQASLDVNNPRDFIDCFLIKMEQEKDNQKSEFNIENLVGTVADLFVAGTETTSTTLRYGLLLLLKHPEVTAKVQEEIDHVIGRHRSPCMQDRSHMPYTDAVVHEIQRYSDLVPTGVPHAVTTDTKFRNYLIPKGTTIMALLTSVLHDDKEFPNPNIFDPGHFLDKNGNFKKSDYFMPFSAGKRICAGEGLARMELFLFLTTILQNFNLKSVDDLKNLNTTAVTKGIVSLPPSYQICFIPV
Sequence of human GPR40 receptor (O14842 whole entry): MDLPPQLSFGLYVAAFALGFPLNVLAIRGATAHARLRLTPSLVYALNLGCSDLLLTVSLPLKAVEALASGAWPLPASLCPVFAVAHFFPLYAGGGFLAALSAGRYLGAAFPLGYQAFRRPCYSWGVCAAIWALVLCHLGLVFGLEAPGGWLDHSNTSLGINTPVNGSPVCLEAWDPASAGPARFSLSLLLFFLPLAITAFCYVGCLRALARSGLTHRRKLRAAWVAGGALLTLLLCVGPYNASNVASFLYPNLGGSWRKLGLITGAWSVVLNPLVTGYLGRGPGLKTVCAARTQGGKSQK
Sequence of cytochrome P450 2C9-isoenzyme (P11712 whole entry): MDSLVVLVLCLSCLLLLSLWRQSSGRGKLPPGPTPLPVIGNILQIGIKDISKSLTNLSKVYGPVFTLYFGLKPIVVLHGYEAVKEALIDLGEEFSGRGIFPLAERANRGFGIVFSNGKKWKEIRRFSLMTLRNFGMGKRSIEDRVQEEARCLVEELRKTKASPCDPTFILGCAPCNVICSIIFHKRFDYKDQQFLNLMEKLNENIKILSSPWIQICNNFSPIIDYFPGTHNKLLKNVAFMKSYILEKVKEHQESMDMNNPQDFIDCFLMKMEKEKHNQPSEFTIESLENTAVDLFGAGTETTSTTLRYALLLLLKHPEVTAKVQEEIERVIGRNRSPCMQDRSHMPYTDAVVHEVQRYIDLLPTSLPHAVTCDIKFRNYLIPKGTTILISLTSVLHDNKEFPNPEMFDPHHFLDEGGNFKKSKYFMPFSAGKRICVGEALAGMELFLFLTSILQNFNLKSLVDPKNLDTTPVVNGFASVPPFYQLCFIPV

Take `Cc1cc(OCC2(O)CCOCC2)cc(C)c1-c1ccc(F)c2c1CC[C@H]2Nc1ccc([C@H]2C[C@@H]2C(=O)O)nc1` [Example 37]: the Solubility (commonly the concentration that dissolves in the medium under given conditions) at pH value 2.2 in “Aqueous solubility” was determined as 119 μg/mL. In addition, the IC50 (commonly the concentration needed to halve the response being measured) was 41 µM in series [1] and over 50 µM in series [2]. Besides, at human GPR40 receptor (setting [3]), the EC50 came out at 0.019 µM.

Take `Cc1cc(-c2nnn(CC(C)(C)O)n2)cc(C)c1-c1ccc(F)c2c1CC[C@H]2Nc1ccc([C@H]2C[C@@H]2C(=O)O)nc1` [Example 20]: in the series “Aqueous solubility”, the “Solubility at pH value 2.2” value amounted to 113 μg/mL. Also, the values for the IC50 in series [1] and in series [2] were 34 µM and over 50 µM, respectively. Further, the EC50 at human GPR40 receptor (setting [3]) is 0.002 µM.

On to `Cc1cc(C(=O)O)cc(C)c1-c1ccc(F)c2c1CC[C@H]2Nc1ccc([C@H]2C[C@@H]2C(=O)O)nc1` [Example 23], for which, in “Aqueous solubility”, the “Solubility at pH value 2.2” value is recorded as 97 μg/mL. In addition, the results for the IC50 in series [1] and in series [2] were 43 µM and over 50 µM, respectively. Also, the EC50 on human GPR40 receptor (setting [3]) was 0.668 µM.

Consider `Cc1cc(OCC(=O)O)cc(C)c1-c1ccc(F)c2c1CC[C@H]2Nc1ccc([C@H]2C[C@@H]2C(=O)O)nc1` [Example 16], for which, in the series “Aqueous solubility”, the “Solubility at pH value 2.2” value turned out to be 96 μg/mL. Further, the IC50 in series [1] and in series [2] was over 50 µM in each case. For the same molecule, the EC50 on human GPR40 receptor (setting [3]) was 0.924 µM.

Regarding `Cc1cc(-c2ccn(C)c(=O)c2)cc(C)c1-c1ccc(F)c2c1CC[C@H]2Nc1ccc([C@H]2C[C@@H]2C(=O)O)nc1` [Example 29], the “Solubility at pH value 2.2” value in “Aqueous solubility” is reported as 117 μg/mL. Moreover, the results for the IC50 in series [1] and in series [2] were 14 µM and over 50 µM, respectively. Moreover, the EC50 on human GPR40 receptor (setting [3]) came out at 0.004 µM.

With `O=C(O)[C@H]1C[C@@H]1c1ccc(N[C@@H]2CCc3c(-c4ccccc4C(F)(F)F)ccc(F)c32)cn1` [Example 31], the “Solubility at pH value 2.2” value in “Aqueous solubility” worked out at 87 μg/mL. Further, the IC50 in series [1] worked out at 15 µM; in series [2], 31 µM. The EC50 on human GPR40 receptor (setting [3]) amounted to 0.027 µM.

Consider `Cc1cc(-c2nnn(C)n2)cc(C)c1-c1cccc2c1CC[C@H]2Nc1ccc([C@H]2C[C@@H]2C(=O)O)nc1` [Example 6, (1S,2S)-2-(5-{(R)-4-[2,6-Dimethyl-4-(2-methyl-2H-tetrazol-5-yl)-phenyl]-indan-1-ylamino}-pyridin-2-yl)-cyclopropanecarboxylic acid], for which the concentration in solution in “Aqueous solubility” (solubility at 24 h) was 68 µg/mL (≈ 141 µM). Also, the IC50 in series [1] is 29 µM; in series [2], over 50 µM. Besides, the EC50 at human GPR40 receptor (setting [3]) turned out to be 0.003 µM.

Take `CNC(=O)c1cc(C)c(-c2ccc(F)c3c2CC[C@H]3Nc2ccc([C@H]3C[C@@H]3C(=O)O)nc2)c(C)c1` [Example 27]: in the series “Aqueous solubility”, the “Solubility at pH value 2.2” value turned out to be 112 μg/mL. Also, the IC50 in series [1] and in series [2] was over 50 µM throughout. Also, at human GPR40 receptor (setting [3]), the EC50 worked out at 0.148 µM.

With `Cc1cc(CO)cc(C)c1-c1ccc(F)c2c1CC[C@H]2Nc1ccc([C@H]2C[C@@H]2C(=O)O)nc1` [Example 13], the “Solubility at pH value 2.2” value in “Aqueous solubility” was found to be 105 μg/mL. The IC50 in series [1] was 40 µM; in series [2], over 50 µM. For the same molecule, on human GPR40 receptor (setting [3]), the EC50 is 0.025 µM.

Take `CC(C)c1ccccc1-c1ccc(F)c2c1CC[C@H]2Nc1ccc([C@H]2C[C@@H]2C(=O)O)nc1` [Example 36]: the “Solubility at pH value 2.2” value in “Aqueous solubility” is listed as 91 μg/mL. Moreover, the IC50 in series [1] came to 10 µM; in series [2] it was 22 µM. Further, the EC50 on human GPR40 receptor (setting [3]) was determined as 0.015 µM.

For `Cc1cc(OCCC(C)(C)O)cc(C)c1-c1ccc(F)c2c1CC[C@H]2Nc1ccc([C@H]2C[C@@H]2C(=O)O)nc1` [Example 2, (1S,2S)-2-(5-{(R)-7-Fluoro-4-[4-(3-hydroxy-3-methyl-butoxy)-2,6-dimethyl-phenyl]-indan-1-ylamino}-pyridin-2-yl)-cyclopropanecarboxylic acid], the solubility (in general, the concentration that dissolves in the medium under given conditions) at 24 h in the series “Aqueous solubility” was 100 µg/mL (≈ 193 µM). Besides, the IC50 is 20 µM in series [1] and over 50 µM in series [2]. In addition, the EC50 on human GPR40 receptor (setting [3]) and on human GPR40 receptor (setting [4]) was 0.004 µM in each case.

For `Cc1cc(-c2ccn(C)c(=O)n2)cc(C)c1-c1ccc(F)c2c1CC[C@H]2Nc1ccc([C@H]2C[C@@H]2C(=O)O)nc1` [Example 18], the “Solubility at pH value 2.2” value in the series “Aqueous solubility” is given as over 130 μg/mL. The IC50 in series [1] was 21 µM; in series [2], over 50 µM. Also, the EC50 on human GPR40 receptor (setting [3]) amounted to 0.005 µM.

With `Cc1cc(C(N)=O)cc(C)c1-c1ccc(F)c2c1CC[C@H]2Nc1ccc([C@H]2C[C@@H]2C(=O)O)nc1` [Example 11], the “Solubility at pH value 2.2” value in the series “Aqueous solubility” is on record as over 120 μg/mL. Also, the IC50 in series [1] and in series [2] was over 50 µM throughout. The EC50 at human GPR40 receptor (setting [3]) was found to be 0.03 µM.

With `Cc1cc(OCC2CCOC2)cc(C)c1-c1ccc(F)c2c1CC[C@H]2Nc1ccc([C@H]2C[C@@H]2C(=O)O)nc1` (stereo partly drawn) [Example 32], the “Solubility at pH value 2.2” value in the series “Aqueous solubility” is 123 μg/mL. In addition, the IC50 is 26 µM in series [1] and over 50 µM in series [2]. Besides, at human GPR40 receptor (setting [3]), the EC50 amounted to 0.007 µM.

`Cc1cc(-c2nnn(C)n2)cc(C)c1-c1ccc(F)c2c1CC[C@H]2Oc1ccc([C@H]2C[C@@H]2C(=O)O)cc1` [Example 45 in WO 2013/178575, reference compound]: in “Aqueous solubility”, the solubility at 24 h is under 1 µg/mL and the “Solubility at pH value 2.2” value is under 1 μg/mL. In series [1], this molecule yielded an IC50 of 5 µM. Further, the EC50 at human GPR40 receptor (setting [4]) was 0.008 µM. For the same molecule, the IC50 in series [2] was 10 µM.

Turning to `Cc1cc(O[C@H]2CCOC2)cc(C)c1-c1ccc(F)c2c1CC[C@H]2Nc1ccc([C@H]2C[C@@H]2C(=O)O)nc1` (mixture of isomers) [Example 33], the “Solubility at pH value 2.2” value in “Aqueous solubility” is reported as 103 μg/mL. For the same molecule, the IC50 was 40 µM in series [1] and over 50 µM in series [2]. Besides, on human GPR40 receptor (setting [3]), the EC50 came to 0.012 µM.

Take `COc1ccc(-c2cccc3c2CC[C@H]3Nc2ccc([C@H]3C[C@@H]3C(=O)O)nc2)cc1F` [Example 8, (1S,2S)-2-{5-[(R)-4-(3-Fluoro-4-methoxy-phenyl)-indan-1-ylamino]-pyridin-2-yl}-cyclopropanecarboxylic acid]: the solubility at 24 h in “Aqueous solubility” was found to be 62 µg/mL (≈ 148 µM). Besides, the half-maximal inhibitory concentration (IC50) in series [1] and in series [2] was over 50 µM throughout. For the same molecule, the EC50 on human GPR40 receptor (setting [3]) was determined as 0.1 µM.

For `Cc1cc(OC2CCOCC2)cc(C)c1-c1ccc(F)c2c1CC[C@H]2Nc1ccc([C@H]2C[C@@H]2C(=O)O)nc1` [Example 35], the “Solubility at pH value 2.2” value in the series “Aqueous solubility” was 106 μg/mL. Moreover, the IC50 is 31 µM in series [1] and over 50 µM in series [2]. In addition, the EC50 on human GPR40 receptor (setting [3]) amounted to 0.011 µM.

Regarding `Cc1cc(OCC2(C)COC2)cc(C)c1-c1ccc(F)c2c1CC[C@H]2Nc1ccc([C@H]2C[C@@H]2C(=O)O)nc1` [Example 15], in the series “Aqueous solubility”, the “Solubility at pH value 2.2” value stood at 120 μg/mL. Moreover, the IC50 in series [1] was 32 µM; in series [2], over 50 µM. In addition, the EC50 at human GPR40 receptor (setting [3]) stood at 0.008 µM.

On to `COc1cc(-c2cc(C)c(-c3ccc(F)c4c3CC[C@H]4Nc3ccc([C@H]4C[C@@H]4C(=O)O)nc3)c(C)c2)ccn1` [Example 22], for which the “Solubility at pH value 2.2” value in “Aqueous solubility” worked out at 106 μg/mL. Also, the IC50 turned out to be 8 µM in series [1] and 19 µM in series [2]. Moreover, at human GPR40 receptor (setting [3]), the EC50 came out at 0.005 µM.

Turning to `Cc1cc(OCC2CCOCC2)cc(C)c1-c1ccc(F)c2c1CC[C@H]2Nc1ccc([C@H]2C[C@@H]2C(=O)O)nc1` [Example 26], the “Solubility at pH value 2.2” value in “Aqueous solubility” came out at 90 μg/mL. In addition, the IC50 was 14 µM in series [1] and 16 µM in series [2]. At human GPR40 receptor (setting [3]), the EC50 was 0.006 µM.

Take `Cc1cc(OCC(C)(C)C#N)cc(C)c1-c1ccc(F)c2c1CC[C@H]2Nc1ccc([C@H]2C[C@@H]2C(=O)O)nc1` [Example 17]: the “Solubility at pH value 2.2” value in the series “Aqueous solubility” turned out to be 64 μg/mL. Besides, the IC50 in series [1] stood at 19 µM; in series [2] it was 36 µM. Further, the EC50 on human GPR40 receptor (setting [3]) is 0.01 µM.
